The subject of series [1] is Platelet. The experiment in a line: Inhibition of platelet aggregation in human platelet rich plasma at 20 uM preincubated for 5 mins followed by aggregation inducer addition and measured after 5 mins by light transmission aggregometry relative to control. Format: functional. Particulars: 10 min.
For series [2], the system named is Platelet. The experiment in a line: Inhibition of platelet aggregation in human platelet rich plasma preincubated for 5 mins followed by aggregation inducer addition and measured after 5 mins by light transmission aggregometry. It counts as functional, cell-based.
A short description of series [3]: Metabolic stability in human liver microsomes assessed as half life at 1 uM preincubated for 1 hr followed by NADPH addition and measured upto 60 mins by LC-MS/MS analysis. The note with it: time < 120 min. It counts as ADME, Microsome. On the technique in general: Microsomes from liver hold many membrane-bound enzymes, among them those of drug oxidation.
The nature of series [4]: Toxicity in C57BL/6J mouse assessed as prolongation of bleeding time at 3 to 12 mg/kg, po administered via oral gavage and measured after 2 hrs. Format: organism-based. The note with it: in vivo, dose 3-12 mg/kg.
The target of series [5] is T1, Proteinase-activated receptor 4 (Homo sapiens) (UniProt Q96RI0).
T1 sequence (whole entry): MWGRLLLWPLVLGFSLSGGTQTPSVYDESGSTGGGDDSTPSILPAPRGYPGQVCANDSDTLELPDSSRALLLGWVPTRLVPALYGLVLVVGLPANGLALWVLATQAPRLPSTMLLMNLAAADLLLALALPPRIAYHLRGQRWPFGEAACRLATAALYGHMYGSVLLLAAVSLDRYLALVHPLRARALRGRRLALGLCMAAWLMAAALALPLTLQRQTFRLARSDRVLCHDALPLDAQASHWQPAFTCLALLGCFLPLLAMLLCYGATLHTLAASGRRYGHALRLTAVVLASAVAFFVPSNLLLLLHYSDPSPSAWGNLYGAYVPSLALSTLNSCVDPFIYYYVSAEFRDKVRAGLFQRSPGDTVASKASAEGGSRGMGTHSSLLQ
The series is described as follows: Antagonist activity at PAR4 in human filtered plasma assessed as inhibition of PAR4-activated peptide AYPGPK-NH2 induced platelet aggregation at 100 nM preincubated for 5 mins followed by aggregation inducer addition and measured after 5 mins by light transmission aggregometry relative to control. Format: functional, cell-free. Particulars: filed as antagonist, time 10.0 min.

Series [6] can be described thus: Oral bioavailability in Sprague-Dawley rat at 50 mg/kg. It counts as ADME, organism-based. The note with it: in vivo.

Activity calls are given as the source filed them.

A word on the inhibition: it is the change of the read-out against control, counted positive when it falls. For `COc1nn2cc(-c3cc4c(OCc5csc(-c6ccc(C(F)(F)F)cc6)n5)cc5c(c4o3)OCCO5)nc2s1`, the inhibition at 20 µM in the series on Platelet [1] is 6.57%.
Broadly, the IC50 is the midpoint of a concentration-inhibition curve. In general, half-life refers to the time needed for the level to fall by half in the phase considered. For the molecule `COc1nn2cc(-c3cc4ccc5c(c4o3)OCO5)nc2s1`, half-maximal inhibition with Platelet [2] (IC50) was put at 18.8 nM. Moreover, the inhibition at 20 µM in the series with Platelet [1] worked out at 77.5%. In series [3], the half-life at 1 µM came to 16.2 min.
On the same counts, the results for `Cc1ccc2nc(-c3cc4ccc5c(c4o3)OCCO5)cn2n1` are 10.8 nM, 85% and 10.6 min.
Consider `COc1nn2cc(-c3cc4c(N5CCOCC5)cc5c(c4o3)OCCO5)nc2s1`, for which the inhibition at 20 µM in the series with Platelet [1] is 37.1%.
For `COC(=O)[C@H](c1ccccc1Cl)N1CCc2sccc2C1` [CLOPIDOGREL], in series [4], the Activity entry is “Toxic”.
In the case of `COc1nn2cc(-c3cc4c(OCc5ccccc5)cc5c(c4o3)OCCO5)nc2s1`, the inhibition at 20 µM with Platelet [1] is 7.4%.
For `COCCCc1cc2c(c3oc(-c4cn5nc(OC)sc5n4)cc13)OCCO2`, the inhibition at 20 µM in the series on Platelet [1] was 4.17%.
As for `COc1nn2cc(-c3cc4c(OCc5csc(-c6ccc(C(=O)N(C)C)cc6)n5)cc5c(c4o3)OCCO5)nc2s1`, the inhibition at 20 µM in the series with Platelet [1] was 80.8%. Further, the half-life at 1 µM in series [3] amounted to 55.8 min.
Turning to `COc1nn2cc(-c3cc4c(OCCN5CCOCC5)cc5c(c4o3)OCCO5)nc2s1`, the inhibition at 20 µM with Platelet [1] is 78.9%. The half-life at 1 µM in series [3] turned out to be 33 min.
For `COc1nn2cc(-c3cc4c(C5CC5)cc5c(c4o3)OCCO5)nc2s1`, it took 18.7 nM to reach half-maximal inhibition in the series on Platelet [2] (IC50). Also, the inhibition at 20 µM in the series with Platelet [1] stood at 75.6%.
`[2H]c1cc2c(c3oc(-c4cn5nc(OC)sc5n4)cc13)OCCO2` gave an IC50 with Platelet [2] of 2.8 nM. Further, in the series with Platelet [1], the inhibition at 20 µM is 79.9%. In addition, in series [3], the half-life at 1 µM was 15 min.
In the case of `COc1nn2cc(-c3cc4ccc5ccccc5c4o3)nc2s1`, in the series with Platelet [1], the inhibition at 20 µM was 8.27%.
Regarding `c1cnn2cc(-c3cc4ccc5c(c4o3)OCCO5)nc2n1`, in the series on Platelet [1], the inhibition at 20 µM is 2.08%.
Regarding `COc1nn2cc(-c3cc4ccc5c(c4o3)CCCC5)nc2s1`, the inhibition at 20 µM in the series on Platelet [1] stood at 8.02%.
For the molecule `COc1nn2cc(-c3cc4ccc5c(c4o3)C=CC(C)(C)O5)nc2s1`, in the series on Platelet [1], the inhibition at 20 µM was found to be 2.58%.
Regarding `COc1nn2cc(-c3cc4ccc5c(c4o3)CCO5)nc2s1`, the IC50 in the series on Platelet [2] worked out at 17.8 nM. In the series with Platelet [1], the inhibition at 20 µM was 83.7%.
Turning to `COc1nn2cc(-c3cc4c(OCC(=O)N5CCC(F)(F)CC5)cc5c(c4o3)OCCO5)nc2s1`, in the series with Platelet [1], the inhibition at 20 µM stood at 75.4%. Also, the half-life at 1 µM in series [3] is 16.1 min.
`COc1nn2cc(-c3cc4c(OCCN5CCS(=O)(=O)CC5)cc5c(c4o3)OCCO5)nc2s1`: the inhibition at 20 µM in the series on Platelet [1] was -4.63%.
`COc1nn2cc(-c3cc4c(Br)cc5c(c4o3)OCCO5)nc2s1` gave an IC50 in the series on Platelet [2] of 18.4 nM. In addition, the inhibition at 20 µM with Platelet [1] worked out at 83.1%. For the same molecule, the half-life at 1 µM in series [3] was 59.7 min.
On to `COc1nn2cc(-c3cc4ccc5c(c4o3)OCCCCO5)nc2s1`, for which the inhibition at 20 µM in the series on Platelet [1] worked out at 44.8%.
Take `COc1nn2cc(-c3cc4cc5c(cc4o3)OCCO5)nc2s1`: in the series with Platelet [1], the inhibition at 20 µM turned out to be 88.4%.
In the case of `COc1nn2cc(-c3cc4c(-c5ccc(C)cc5)cc5c(c4o3)OCCO5)nc2s1`, the inhibition at 20 µM with Platelet [1] is -0.13%.
Same read-out and setting: the result for `COc1nn2cc(-c3cc4c(C(F)(F)F)cc5c(c4o3)OCCO5)nc2s1` reads 5.75%.
For `COc1nn2cc(-c3cc4c(OCc5csc(N6CCSCC6)n5)cc5c(c4o3)OCCO5)nc2s1`, in the series on Platelet [2], the midpoint of inhibition, the IC50, lay at 9.2 nM. Moreover, the inhibition at 20 µM in the series on Platelet [1] worked out at 82.1%.
Take `COc1nn2cc(-c3cc4c(OCC(=O)N5CCN(C(C)=O)CC5)cc5c(c4o3)OCCO5)nc2s1`: in the series with Platelet [1], the inhibition at 20 µM was found to be 15.1%.
`CSc1nn2cc(-c3cc4ccc5c(c4o3)OCCOCCO5)nc2s1`: in the series with Platelet [1], the inhibition at 20 µM was -1.3%.
For `CCOC(=O)N[C@@H]1CC[C@@H]2[C@@H](C1)C[C@H]1C(=O)O[C@H](C)[C@H]1[C@H]2/C=C/c1ccc(-c2cccc(F)c2)cn1`, the result in series [5] was Active.
Regarding `COc1nn2cc(-c3cc4ccc5c(c4o3)CCCO5)nc2s1`, the inhibition at 20 µM in the series on Platelet [1] came to 1.14%.
Same read-out and setting: the result for `FC(F)(F)c1nn2cc(-c3cc4ccc5c(c4o3)OCCO5)nc2s1` reads 3.89%; that for `COc1nn2cc(-c3cc4c5c(ccc4o3)OCCO5)nc2s1`, 18.4%.
On to `CSc1nn2cc(-c3cc4ccccc4o3)nc2s1`, for which, in the series on Platelet [1], the inhibition at 20 µM is 81%. For the same molecule, the half-life at 1 µM in series [3] amounted to 11.1 min.
As for `COc1ccc2nc(-c3cc4ccc5c(c4o3)OCCO5)cn2n1`, the inhibition at 20 µM with Platelet [1] is 0%.
`COc1nn2cc(-c3cc4c(Cl)cc5c(c4o3)OCCO5)nc2s1`: in the series with Platelet [1], the inhibition at 20 µM is 43.2%.
In general, bioavailability refers to dose-corrected exposure relative to a reference, in per cent. Higher therefore signals good availability. In turn, `COc1nn2cc(-c3cc4c(F)cc5c(c4o3)OCCO5)nc2s1` gave an IC50 in the series with Platelet [2] of 9.1 nM. The inhibition at 20 µM in the series on Platelet [1] came out at 74.8%. In addition, the bioavailability in series [6] was found to be 4.9%. The half-life at 1 µM in series [3] turned out to be 34.3 min.
`COc1nn2cc(-c3cc4ccc5c(c4o3)OCCCO5)nc2s1` came in with an IC50 in the series with Platelet [2] of 17.1 nM. Further, in the series on Platelet [1], the inhibition at 20 µM was 76.8%. In addition, the half-life at 1 µM in series [3] was 18.4 min.
In the case of `COc1nn2cc(-c3cc4c(OCc5nc(N6CCOCC6)sc5C)cc5c(c4o3)OCCO5)nc2s1`, in the series with Platelet [2], 9.2 nM corresponded to half-maximal inhibition (IC50). The inhibition at 20 µM in the series with Platelet [1] is 85.2%. The half-life at 1 µM in series [3] was 14.8 min.

Source of the values: ChEMBL document CHEMBL5543125, “Discovery of 2,3-Dihydro[1,4]dioxino[2,3-g]benzofuran Derivatives as Protease Activated Receptor 4 (PAR4) Antagonists with Potent Antiplatelet Aggregation Activity and Low Bleeding Tendency” (J Med Chem, 2024).
